Laboratory results taken from US6417141B1, “Substituted aminouracils” (Bayer Aktiengesellschaft, priority 1995, dated 2002).

Tests used:
Assay type in all cases: in vivo
Conditions in all cases: greenhouse, 125 g/ha a.i., rated after three weeks vs untreated control
Amaranthus [1] = assay: Pre-emergence test
Description: (§1) Solvent: 5 parts by weight of acetone
(§2) Emulsifier: 1 part by weight of alkylaryl polyglycol ether
(§3) To produce a suitable preparation of active compound, 1 part by weight of active compound is mixed with a stated amount of solvent, the stated amount of the emulsifier is added and the concentrate is diluted with water to the desired concentration.
(§4) Seeds of the test plants are sown in normal soil. After about 24 hours, the soil is watered with the preparation of the active compound. It is advantageous to keep the amount of water per unit area constant. The concentration of the active compound in the preparation is immaterial, only the amount of active compound applied per unit area matters.
(§5) After three weeks, the degree of damage to the plants is rated in % damage by comparison with the development of the untreated control.
(§6) 0%=no effect (like untreated control)

Galium [2] = assay: Pre-emergence test
Description: as §1, §2, §3, §4, §5, §6

Abutilon [3] = assay: Pre-emergence test
Description: as §1, §2, §3, §4, §5, §6

Alopecurus [4] = assay: Pre-emergence test
Description: as §1, §2, §3, §4, §5, §6

Xanthium [5] = assay: Pre-emergence test
Description: as §1, §2, §3, §4, §5, §6

Cyperus [6] = assay: Pre-emergence test
Description: as §1, §2, §3, §4, §5, §6

Avena [7] = assay: Pre-emergence test
Description: as §1, §2, §3, §4, §5, §6

Sinapis [8] = assay: Pre-emergence test
Description: as §1, §2, §3, §4, §5, §6

Setaria [9] = assay: Pre-emergence test
Description: as §1, §2, §3, §4, §5, §6

Amaranthus [10] = assay: Post-emergence test
Description: as §1, §2
(§7) To produce a suitable preparation of active compound, 1 part by weight of active compound is mixed with the stated amount of solvent, the stated amount of emulsifier is added and the concentrate is diluted with water to the desired concentration.
(§8) Test plants which have a height of 5-15 cm are sprayed with the preparation of the active compound in such a way as to apply the particular amounts of active compound desired per unit area.
as §5, §6

Galium [11] = assay: Post-emergence test
Description: as §1, §2, §7, §8, §5, §6

Abutilon [12] = assay: Post-emergence test
Description: as §1, §2, §7, §8, §5, §6

Alopecurus [13] = assay: Post-emergence test
Description: as §1, §2, §7, §8, §5, §6

Xanthium [14] = assay: Post-emergence test
Description: as §1, §2, §7, §8, §5, §6

Cyperus [15] = assay: Post-emergence test
Description: as §1, §2, §7, §8, §5, §6

Avena [16] = assay: Post-emergence test
Description: as §1, §2, §7, §8, §5, §6

Sinapis [17] = assay: Post-emergence test
Description: as §1, §2, §7, §8, §5, §6

Setaria [18] = assay: Post-emergence test
Description: as §1, §2, §7, §8, §5, §6

COc1cc(-n2c(=O)cc(C(F)(F)F)n(N)c2=O)c(F)cc1C#N [Example 1, 1-(4-cyano-2-fluoro-5-methoxy-phenyl)-3,6-dihydro-2,6-dioxo-3-amino-4-trifluoromethyl-1(2H)-pyrimidine]
100%: degree of damage to the plants, Amaranthus (Amaranthus [1]) | degree of damage to the plants, Galium (Galium [2]) | degree of damage to the plants, Abutilon (Abutilon [3]) | degree of damage to the plants, Alopecurus (Alopecurus [4]) | degree of damage to the plants, Xanthium (Xanthium [5]) | degree of damage to the plants, Cyperus (Cyperus [6]) | degree of damage to the plants, Avena (Avena [7]) | degree of damage to the plants, Sinapis (Sinapis [8]) | degree of damage to the plants, Setaria (Setaria [9]) | degree of damage to the plants, Amaranthus (Amaranthus [10]) | degree of damage to the plants, Galium (Galium [11]) | degree of damage to the plants, Abutilon (Abutilon [12]) | degree of damage to the plants, Alopecurus (Alopecurus [13]) | degree of damage to the plants, Xanthium (Xanthium [14]) | degree of damage to the plants, Cyperus (Cyperus [15]) | degree of damage to the plants, Avena (Avena [16]) | degree of damage to the plants, Sinapis (Sinapis [17]) | degree of damage to the plants, Setaria (Setaria [18])
